The record followed here is PubChem BioAssay (NCI).

Holding throughout (test): inhibition of tumour cell growth, NCI panel, 48 h
The subject of test [1] is SK-MEL-2 melanoma.
Test [2] concerns OVCAR-5 ovarian.
Test [3] has as its system OVCAR-4 ovarian.
Test [4] deals with SF-295 CNS.
The test system of test [5] is HOP-92 NSCLC.
In test [6] the test system is SK-MEL-5 melanoma.
In test [7] the test system is MOLT-4 leukemia.
Test [8] concerns RXF 393 renal.
In test [9] the test system is U251 CNS.
Test [10] has as its system SNB-75 CNS.

Each structure is given as a SMILES string.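 Exposure lasted 48 hours, with cells grown in 96-well plates and compounds tested at five concentrations. GI50 is the concentration that inhibits growth by half. TGI: total growth inhibition.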 Where only a bound is given, the exact number is not on record here.

Take `C=CCN1CCC(OC(=O)C(O)(C#CC)C2CCCC2)CC1` (stereo not drawn): the TGI in test [1], in test [2], in test [3], in test [4], in [5] and in [6] was above 100 µM each time. The TGI in test [7], in [8], in test [9] and in [10] was above 100 µM each time.
Consider `COc1cc(C2SC(N)=Nc3c2c(C)nn3C(=O)c2ccccc2O)cc(OC)c1OC` (stereo not drawn), for which the TGI in [1] is above 10 µM; in test [2] it was above 10 µM; in test [3] it was above 10 µM; in [4] it was above 10 µM; in test [5] it was 8.07 µM; in [6], above 10 µM. Moreover, the TGI in [7] is above 10 µM; in test [8], above 10 µM; in test [9], above 10 µM; in [10] it was 6.85 µM.
With `CC[C@@]1(N(C)C)C(=O)OCc2c1cc1n(c2=O)Cc2cc3ccccc3nc2-1`, the TGI in [1] is 77.5 µM; in test [2], above 100 µM; in test [3], above 100 µM; in test [4], 37.2 µM; in [5], 69.6 µM; in test [6] it was above 100 µM. The values for the TGI in test [8], in test [9] and in [10] were 31 µM, above 100 µM and 34.5 µM, respectively.
For the compound `O=C(Nc1cccc(-n2ccc3c(NC(=O)c4ccccc4)nccc32)c1)c1ccc(N2CCOCC2)c(C(F)(F)F)c1`, the GI50 was 0.253 µM in test [1]; 0.188 µM in [2]; 0.168 µM in test [3]; 0.0306 µM in test [4]; 0.179 µM in test [5]; 0.0349 µM in test [6]. Besides, the GI50 in test [7] was 0.128 µM; in [8], 0.0333 µM; in [9] it was 0.0474 µM; in test [10], 0.023 µM. For the same compound, the TGI was 20.1 µM in test [1]; above 100 µM in test [2]; above 70.7 µM in test [3]; 0.49 µM in [4]; 6.87 µM in [5]; 0.169 µM in test [6]. Also, the TGI was above 100 µM in test [7], 2.69 µM in test [8], above 100 µM in test [9] and 25.9 µM in test [10].
In the case of `CC(=O)ON(C(C)=O)c1ccc(-c2nc3ccccc3s2)cc1`, the TGI in test [1] was 67.1 µM; in [2] it was 98.6 µM; in test [3] it was above 100 µM; in test [4] it was above 76.4 µM; in test [5] it was above 81.6 µM; in test [6], 89.9 µM. Besides, the TGI in test [7] is 49.3 µM; in test [8], above 79.3 µM; in [9] it was above 60.9 µM; in test [10] it was above 89.9 µM.
Turning to `OC1[C@H]([C@H]2CCCC[C@@H]2O)CCC[C@@H]1[C@@H]1CCCC[C@H]1O` (stereo partly drawn), the TGI in test [1], in [2], in [3], in test [4], in test [5] and in test [6] was above 100 µM each time. The TGI in test [7], in [8], in test [9] and in test [10] was above 100 µM in each case.
Regarding `COc1cc(-c2cn(S(=O)(=O)c3ccc(C)cc3)c3ccccc23)nc(-c2cn(S(=O)(=O)c3ccc(C)cc3)c3ccccc23)n1`, the TGI was above 100 µM in test [1]; 19.6 µM in test [2]; above 100 µM in [3]; above 91.7 µM in [4]; above 60.9 µM in [5]; above 22.5 µM in [7]. The TGI in test [8] is above 100 µM; in test [9], 13.8 µM; in test [10], above 100 µM.
For `O=C(OCc1ccccc1CN1CCOCC1)c1cccc(Br)c1`, the TGI was 52.9 µM in test [1]; above 100 µM in test [2]; 70 µM in test [3]; above 100 µM in test [5]; 33.3 µM in test [6]; above 100 µM in test [8]. Moreover, the TGI in [9] and in [10] was above 100 µM throughout.
On to `O=C1c2c(Cl)c(Cl)c(Cl)c(Cl)c2C(=O)N1CCN(c1c(Cl)ssc1=O)c1c(Cl)ssc1=O`, for which the TGI in test [1] was 54.3 µM; in [2], above 100 µM; in test [3] it was 40.2 µM; in test [4], above 100 µM; in [5], 35.5 µM; in [6], above 100 µM. For the same compound, the TGI in test [7] was 37.7 µM; in test [8] it was 34.4 µM; in [9], above 100 µM; in test [10] it was above 100 µM.
For `C=CCOC(=O)N1[C@H]2C#C/C=C\C#C[C@]3(O)C(=O)C[C@H](C)[C@]24O[C@]43C2=CC(=O)C=CC21OC` (stereo partly drawn), the TGI in test [1] was 66.5 µM; in test [2] it was above 100 µM; in [3], 84.2 µM; in test [4], above 100 µM; in test [5] it was above 100 µM; in test [7], 52.9 µM. Further, the TGI is 47.7 µM in test [8], above 100 µM in test [9] and 82.5 µM in test [10].
`Nc1sc2c(c1C(=O)c1ccc(Cl)c(Cl)c1)CCCC2`: the TGI in [1] is 44.1 µM; in test [2], above 100 µM; in test [3], above 100 µM; in test [4], above 100 µM; in test [5], above 100 µM; in [7], above 100 µM. Moreover, the TGI in test [8] was above 100 µM; in [9], above 100 µM; in test [10], 86.4 µM.
With `CCOC(=O)C1(C(N)=O)C(=O)c2ccncc2C1=O` (stereo not drawn), the TGI in test [1], in test [2], in [3], in test [4], in test [5] and in [6] was above 100 µM throughout. The TGI in test [8], in test [9] and in test [10] was above 100 µM each time.
